Values of other authors in patent publication US20120148541A1, “COMPOSITIONS AND METHODS TO GENERATE PILOSEBACEOUS UNITS” (priority 2010, published 2012).

Key:
[1] = in published reports
[2] = DMSO

## c1cc(-c2cnn3cc(-c4ccc(OCCN5CCCCC5)cc4)cnc23)ccn1 [Dorsomorphin, dorsomorphin]
[1]
  toxicity: low toxicity
[2]
  solubility: soluble in DMSO
